Measured values as given in ChEMBL document CHEMBL1201861, “Genomics of Drug Sensitity in Cancer screening data, Wellcome Trust Sanger Institute”.

Tests used:
Assay type in all cases: functional, cell-based
IGR-1 = test: cells; details: Homo sapiens
Description: SANGER: Inhibition of human IGR-1 cell growth in a cell viability assay.

786-0 = test: cells; details: Homo sapiens
Description: SANGER: Inhibition of human 786-0 cell growth in a cell viability assay.

NCI-H810 = test: cells; details: Homo sapiens
Description: SANGER: Inhibition of human NCI-H810 cell growth in a cell viability assay.

NCI-H446 = test: cells; details: Homo sapiens
Description: SANGER: Inhibition of human NCI-H446 cell growth in a cell viability assay.

ES7 = test: cells; details: Homo sapiens
Description: SANGER: Inhibition of human ES7 cell growth in a cell viability assay.

DMS-114 = test: cells; details: Homo sapiens
A2780 = test: cells; details: Homo sapiens
Description: SANGER: Inhibition of human A2780 cell growth in a cell viability assay.

CHP-212 = test: cells; details: Homo sapiens
Description: SANGER: Inhibition of human CHP-212 cell growth in a cell viability assay.

K5 = test: cells; details: Homo sapiens
Description: SANGER: Inhibition of human K5 cell growth in a cell viability assay.

LB1047-RCC = test: cells; details: Homo sapiens
Description: SANGER: Inhibition of human LB1047-RCC cell growth in a cell viability assay.

A-427 = test: cells; details: Homo sapiens
Description: SANGER: Inhibition of human A427 cell growth in a cell viability assay.

MHH-NB-11 = test: cells; details: Homo sapiens
Description: SANGER: Inhibition of human MHH-NB-11 cell growth in a cell viability assay.

EM-2 = test: cells; details: Homo sapiens
Description: SANGER: Inhibition of human EM-2 cell growth in a cell viability assay.

D-392MG = test: cells; details: Homo sapiens
L-363 = test: cells; details: Homo sapiens
Description: SANGER: Inhibition of human L-363 cell growth in a cell viability assay.

MEG-01 = test: cells; details: Homo sapiens
Description: SANGER: Inhibition of human MEG-01 cell growth in a cell viability assay.

NCI-H1581 = test: cells; details: Homo sapiens
Description: SANGER: Inhibition of human NCI-H1581 cell growth in a cell viability assay.

D-566MG = test: cells; details: Homo sapiens
AGS = test: cells; details: Homo sapiens
Description: SANGER: Inhibition of human AGS cell growth in a cell viability assay.

KU812 cell line = test: cells; details: Homo sapiens
Description: SANGER: Inhibition of human KU812 cell growth in a cell viability assay.

A253 cell line = test: cells; details: Homo sapiens
Description: SANGER: Inhibition of human A253 cell growth in a cell viability assay.

LXF-289 cell line = test: cells; details: Homo sapiens
Description: SANGER: Inhibition of human LXF-289 cell growth in a cell viability assay.

BC1 cell line = test: SANGER: Inhibition of human BC-1 cell growth in a cell viability assay.
MDA-MB-453 = test: cells; details: Homo sapiens
Description: SANGER: Inhibition of human MDA-MB-453 cell growth in a cell viability assay.

JAR = test: cells; details: Homo sapiens
Description: SANGER: Inhibition of human JAR cell growth in a cell viability assay.

SK-N-FI = test: cells; details: Homo sapiens
Description: SANGER: Inhibition of human SK-N-FI cell growth in a cell viability assay.

NOMO-1 = test: cells; details: Homo sapiens
Description: SANGER: Inhibition of human NOMO-1 cell growth in a cell viability assay.

ATN-1 = test: cells; details: Homo sapiens
Description: SANGER: Inhibition of human ATN-1 cell growth in a cell viability assay.

HCC1569 = test: cells; details: Homo sapiens
Description: SANGER: Inhibition of human HCC1569 cell growth in a cell viability assay.

BB49-HNC = test: cells; details: Homo sapiens
Description: SANGER: Inhibition of human BB49-HNC cell growth in a cell viability assay.

LCLC-103H cell line = test: cells; details: Homo sapiens
Description: SANGER: Inhibition of human LCLC-103H cell growth in a cell viability assay.

MPP-89 = test: cells; details: Homo sapiens
Description: SANGER: Inhibition of human MPP-89 cell growth in a cell viability assay.

IA-LM = test: cells; details: Homo sapiens
Description: SANGER: Inhibition of human IA-LM cell growth in a cell viability assay.

PSN1 = test: cells; details: Homo sapiens
Description: SANGER: Inhibition of human PSN1 cell growth in a cell viability assay.

RS4-11 = test: cells; details: Homo sapiens
Description: SANGER: Inhibition of human RS4-11 cell growth in a cell viability assay.

NCI-H1666 = test: cells; details: Homo sapiens
Description: SANGER: Inhibition of human NCI-H1666 cell growth in a cell viability assay.

SK-N-AS = test: cells; details: Homo sapiens
Description: SANGER: Inhibition of human SK-N-AS cell growth in a cell viability assay.

SW948 = test: cells; details: Homo sapiens
Description: SANGER: Inhibition of human SW948 cell growth in a cell viability assay.

C8166 = test: cells; details: Homo sapiens
Description: SANGER: Inhibition of human C8166 cell growth in a cell viability assay.

A3-KAW = test: cells; details: Homo sapiens
Description: SANGER: Inhibition of human A3-KAW cell growth in a cell viability assay.

LCLC-97TM1 = test: cells; details: Homo sapiens
Description: SANGER: Inhibition of human LCLC-97TM1 cell growth in a cell viability assay.

NCI-H23 = test: cells; details: Homo sapiens
Description: SANGER: Inhibition of human NCI-H23 cell growth in a cell viability assay.

GCT = test: cells; details: Homo sapiens
Description: SANGER: Inhibition of human GCT cell growth in a cell viability assay.

LU-139 = test: cells; details: Homo sapiens
Description: SANGER: Inhibition of human LU-139 cell growth in a cell viability assay.

IST-SL1 = test: cells; details: Homo sapiens
Description: SANGER: Inhibition of human IST-SL1 cell growth in a cell viability assay.

TE-8 = test: cells; details: Homo sapiens
Description: SANGER: Inhibition of human TE-8 cell growth in a cell viability assay.

NCI-H520 = test: cells; details: Homo sapiens
Description: SANGER: Inhibition of human NCI-H520 cell growth in a cell viability assay.

TE-1 = test: cells; details: Homo sapiens
Description: SANGER: Inhibition of human TE-1 cell growth in a cell viability assay.

8505C = test: cells; details: Homo sapiens
Description: SANGER: Inhibition of human 8505C cell growth in a cell viability assay.

COLO-320-HSR = test: cells; details: Homo sapiens
Description: SANGER: Inhibition of human COLO-320-HSR cell growth in a cell viability assay.

KARPAS-45 = test: cells; details: Homo sapiens
Description: SANGER: Inhibition of human KARPAS-45 cell growth in a cell viability assay.

OS-RC-2 = test: cells; details: Homo sapiens
Description: SANGER: Inhibition of human OS-RC-2 cell growth in a cell viability assay.

P30-OHK = test: cells; details: Homo sapiens
Description: SANGER: Inhibition of human P30-OHK cell growth in a cell viability assay.

UACC-893 = test: cells; details: Homo sapiens
Description: SANGER: Inhibition of human UACC-893 cell growth in a cell viability assay.

COR-L88 = test: cells; details: Homo sapiens
Description: SANGER: Inhibition of human COR-L88 cell growth in a cell viability assay.

NY = test: cells; details: Homo sapiens
Description: SANGER: Inhibition of human NY cell growth in a cell viability assay.

HN = test: cells; details: Homo sapiens
Description: SANGER: Inhibition of human HN cell growth in a cell viability assay.

H-EMC-SS = test: cells; details: Homo sapiens
Description: SANGER: Inhibition of human H-EMC-SS cell growth in a cell viability assay.

CaR-1 = test: cells; details: Homo sapiens
Description: SANGER: Inhibition of human CaR-1 cell growth in a cell viability assay.

NCI-H292 = test: cells; details: Homo sapiens
Description: SANGER: Inhibition of human NCI-H292 cell growth in a cell viability assay.

DSH1 = test: cells; details: Homo sapiens
Description: SANGER: Inhibition of human DSH1 cell growth in a cell viability assay.

JVM-3 = test: cells; details: Homo sapiens
Description: SANGER: Inhibition of human JVM-3 cell growth in a cell viability assay.

TE-6 = test: cells; details: Homo sapiens
Description: SANGER: Inhibition of human TE-6 cell growth in a cell viability assay.

COLO-824 = test: cells; details: Homo sapiens
Description: SANGER: Inhibition of human COLO-824 cell growth in a cell viability assay.

8305C = test: cells; details: Homo sapiens
Description: SANGER: Inhibition of human 8305C cell growth in a cell viability assay.

HT55 = test: cells; details: Homo sapiens
Description: SANGER: Inhibition of human HT55 cell growth in a cell viability assay.

SW780 = test: cells; details: Homo sapiens
Description: SANGER: Inhibition of human SW780 cell growth in a cell viability assay.

MN-60 = test: cells; details: Homo sapiens
Description: SANGER: Inhibition of human MN-60 cell growth in a cell viability assay.

NCI-H1693 = test: cells; details: Homo sapiens
Description: SANGER: Inhibition of human NCI-H1693 cell growth in a cell viability assay.

YAPC = test: cells; details: Homo sapiens
Description: SANGER: Inhibition of human YAPC cell growth in a cell viability assay.

OVCAR-8 = test: cells; details: Homo sapiens
Description: SANGER: Inhibition of human OVCAR-8 cell growth in a cell viability assay.

VMRC-RCZ = test: cells; details: Homo sapiens
Description: SANGER: Inhibition of human VMRC-RCZ cell growth in a cell viability assay.

CAL-62 = test: cells; details: Homo sapiens
Description: SANGER: Inhibition of human CAL-62 cell growth in a cell viability assay.

HTC-C3 = test: cells; details: Homo sapiens
Description: SANGER: Inhibition of human HTC-C3 cell growth in a cell viability assay.

MOLT-13 = test: cells; details: Homo sapiens
Description: SANGER: Inhibition of human MOLT-13 cell growth in a cell viability assay.

SBC-1 = test: cells; details: Homo sapiens
Description: SANGER: Inhibition of human SBC-1 cell growth in a cell viability assay.

CAL-39 = test: cells; details: Homo sapiens
Description: SANGER: Inhibition of human CAL-39 cell growth in a cell viability assay.

OE33 = test: cells; details: Homo sapiens
Description: SANGER: Inhibition of human OE33 cell growth in a cell viability assay.

5637 = test: cells; details: Homo sapiens
Description: SANGER: Inhibition of human 5637 cell growth in a cell viability assay.

OCUB-M = test: cells; details: Homo sapiens
Description: SANGER: Inhibition of human OCUB-M cell growth in a cell viability assay.

SK-LU-1 = test: cells; details: Homo sapiens
Description: SANGER: Inhibition of human SK-LU-1 cell growth in a cell viability assay.

DMS-273 = test: cells; details: Homo sapiens
Description: SANGER: Inhibition of human DMS-273 cell growth in a cell viability assay.

HSC-2 = test: cells; details: Homo sapiens
Description: SANGER: Inhibition of human HSC-2 cell growth in a cell viability assay.

GI-1 = test: cells; details: Homo sapiens
Description: SANGER: Inhibition of human GI-1 cell growth in a cell viability assay.

CAL-51 = test: cells; details: Homo sapiens
Description: SANGER: Inhibition of human CAL-51 cell growth in a cell viability assay.

HEL = test: cells; details: Homo sapiens
Description: SANGER: Inhibition of human HEL cell growth in a cell viability assay.

SK-MEL-2 = test: cells; details: Homo sapiens
Description: SANGER: Inhibition of human SK-MEL-2 cell growth in a cell viability assay.

Huh-7 = test: cells; details: Homo sapiens
Description: SANGER: Inhibition of human HuH-7 cell growth in a cell viability assay.

A673 = test: cells; details: Homo sapiens
Description: SANGER: Inhibition of human A673 cell growth in a cell viability assay.

SNU-449 = test: cells; details: Homo sapiens
Description: SANGER: Inhibition of human SNU-449 cell growth in a cell viability assay.

OC-314 = test: cells; details: Homo sapiens
Description: SANGER: Inhibition of human OC-314 cell growth in a cell viability assay.

EW-18 = test: cells; details: Homo sapiens
Description: SANGER: Inhibition of human EW-18 cell growth in a cell viability assay.

SNU1 = test: cells; details: Homo sapiens
Description: SANGER: Inhibition of human NCI-SNU-1 cell growth in a cell viability assay.

## NC(=O)[C@@H](CCC(F)(F)F)N(Cc1ccc(-c2ncon2)cc1F)S(=O)(=O)c1ccc(Cl)cc1
IGR-1
  IC50: 1050 nM
786-0
  IC50: 322 nM
NCI-H810
  IC50: 426 nM

## CNC(=O)c1ccccc1Sc1ccc2c(/C=C/c3ccccn3)n[nH]c2c1 [AXITINIB]
NCI-H446
  IC50: > 2000 nM
ES7
  IC50: 1110 nM
DMS-114
  IC50: > 2000 nM
A2780
  IC50: 1010 nM
CHP-212
  IC50: > 2000 nM
K5
  IC50: 421 nM
LB1047-RCC
  IC50: > 2000 nM
A-427
  IC50: 1100 nM
MHH-NB-11
  IC50: > 2000 nM
EM-2
  IC50: 168 nM
D-392MG
  IC50: > 2000 nM
L-363
  IC50: > 2000 nM
MEG-01
  IC50: 424 nM
NCI-H1581
  IC50: 1390 nM
D-566MG
  IC50: 1410 nM
AGS
  IC50: 1110 nM

## CC[C@@H]1C(=O)N(C)c2cnc(Nc3ccc(C(=O)NC4CCN(C)CC4)cc3OC)nc2N1C1CCCC1 [BI-2536]
KU812 cell line
  IC50: 120 nM
A253 cell line
  IC50: 88.2 nM
LXF-289 cell line
  IC50: 17.7 nM
BC1 cell line
  IC50: 226 nM

## O=C(CCCCCCC(=O)Nc1ccccc1)NO [VORINOSTAT]
MDA-MB-453
  IC50: 2240 nM
JAR
  IC50: 2320 nM
SK-N-FI
  IC50: 4940 nM
NOMO-1
  IC50: 2190 nM
ATN-1
  IC50: 740 nM
HCC1569
  IC50: 4880 nM
BB49-HNC
  IC50: > 10000 nM
LCLC-103H cell line
  IC50: 2900 nM
MPP-89
  IC50: 7600 nM
IA-LM
  IC50: 1690 nM
PSN1
  IC50: 2290 nM
RS4-11
  IC50: 832 nM
NCI-H1666
  IC50: 2280 nM
SK-N-AS
  IC50: 988 nM
SW948
  IC50: 2180 nM
C8166
  IC50: 2210 nM
A3-KAW
  IC50: 401 nM
LCLC-97TM1
  IC50: 2150 nM
ES7
  IC50: 1550 nM
NCI-H23
  IC50: 1550 nM
GCT
  IC50: 2180 nM
LU-139
  IC50: 823 nM
IST-SL1
  IC50: 2170 nM
TE-8
  IC50: 2160 nM
NCI-H520
  IC50: > 10000 nM
TE-1
  IC50: 791 nM
8505C
  IC50: 1020 nM
COLO-320-HSR
  IC50: 1880 nM
KARPAS-45
  IC50: 174 nM
OS-RC-2
  IC50: 1870 nM
P30-OHK
  IC50: 836 nM
UACC-893
  IC50: > 10000 nM
COR-L88
  IC50: 1560 nM
NY
  IC50: > 10000 nM
HN
  IC50: 1890 nM
H-EMC-SS
  IC50: > 10000 nM
CaR-1
  IC50: 2860 nM
NCI-H292
  IC50: 2870 nM
DSH1
  IC50: 2160 nM
JVM-3
  IC50: 1850 nM
TE-6
  IC50: 4940 nM
COLO-824
  IC50: 7730 nM
8305C
  IC50: 2870 nM
HT55
  IC50: 1650 nM
SW780
  IC50: 4860 nM
MN-60
  IC50: 1030 nM
NCI-H1693
  IC50: > 10000 nM
YAPC
  IC50: > 10000 nM
OVCAR-8
  IC50: 1540 nM
VMRC-RCZ
  IC50: > 10000 nM
CAL-62
  IC50: 3550 nM
HTC-C3
  IC50: 2270 nM
MOLT-13
  IC50: 739 nM
SBC-1
  IC50: 794 nM
CAL-39
  IC50: 2240 nM
OE33
  IC50: 4880 nM
5637
  IC50: 2320 nM
OCUB-M
  IC50: 3550 nM
SK-LU-1
  IC50: > 10000 nM
DMS-273
  IC50: 2150 nM
HSC-2
  IC50: 2130 nM
GI-1
  IC50: 2310 nM
D-566MG
  IC50: 839 nM
CAL-51
  IC50: 2170 nM
HEL
  IC50: 806 nM
SK-MEL-2
  IC50: 809 nM
Huh-7
  IC50: 2310 nM
A673
  IC50: 2260 nM
SNU-449
  IC50: 2890 nM
OC-314
  IC50: 2230 nM
EW-18
  IC50: 833 nM
SNU1
  IC50: 1020 nM
